Data on five compounds can be found in US8771716B2, “Modified release analgesic suspensions” (McNeil-PPC, Inc., priority 2006, dated 2014).

The nature of data set [1]: Typical duration of action (period of therapeutic effect) of an immediate release dose, from labeling. In kind it is in vivo. The source says:
As used herein, “ATDAIRD” shall mean the average therapeutic duration of action of an effective immediate release dose” of a particular active ingredient. […] The therapeutic duration of action of a particular active ingredient can readily be determined from the dosing instructions in the labeling for immediate release products containing that particular active ingredient.

The conditions of data set [2]: decongestant; typically administered every 2 to 4 hours; cited from earlier work.

For the compound `CC(C)Cc1ccc(C(C)C(=O)O)cc1` (centres unmarked) [ibuprofen, 2-(4-isobutylphenyl)-propionic acid], the “ATDAIRD (average therapeutic duration of action of an effective immediate release dose)” value in data set [1] is 5 h.
Consider `CC(C(=O)O)c1cccc(C(=O)c2ccccc2)c1` (centres unmarked) [ketoprofen], for which, in data set [1], the “ATDAIRD (average therapeutic duration of action of an effective immediate release dose)” value came to 5 h.
As for `COc1ccc2cc([C@H](C)C(=O)O)ccc2c1` [naproxen], the “ATDAIRD (average therapeutic duration of action of an effective immediate release dose)” value in data set [1] stood at 10 h.
As to `CNC[C@H](O)c1cccc(O)c1` [phenylephrine, benzynemethanol, 3-hydroxy-α-[(methylamino)methyl]], in data set [2], the “duration of therapeutic effect” value is “about 2.5 hours”.
Take `CN[C@@H](C)[C@@H](O)c1ccccc1` [psuedoephedrine]: in data set [1], the “ATDAIRD (average therapeutic duration of action of an effective immediate release dose)” value is on record as “about 3 hours”.
